Reference: patent publication US11274078B2, “Drug for treating tumor diseases and having antibacterial antivirus anti-inflammatory effects” (priority 2017, dated 2022)

Tests used:
Assay type in all cases: cell-based
[1] = system: HCT-116 tumor cells; assay: Cell proliferation inhibition assay (MTT), HCT-116; conditions: HCT-116 cells, 48 hours
Experimental: (§1) Case Study I: Antitumor Cell Activity of Naphthalene Diamides • Compounds of Tables 1 and 2 were synthesized in multiple steps according to the procedure of Examples 1-3 using relevant antitumor cell activity assays. The compound synthesized above was tested for IC50 concentration (MIC) against HCT-116, MCF-7, Calu-6 and A549 tumor cells by in vitro cellular activity.
(§2) Case Study II: Cell Proliferation Inhibition Assay • Based on MTT method, briefly plating HCT-116, MCF-7 and A549 cells in a concentration of 2×10^4/ml with complete culture medium in 96-well plates overnight. The volume for each well was 100 μL. Cells were treated with compounds in concentrations of 40, 20, 10, 5, 2.5, 1.25 μmol/L, and cultured at 37° C., 5% CO2 for 48 hours, followed by adding 20 μL of 5 mg/ml MTT reagent per well and continuing to culture for 2˜4 h, respectively. As a control, DMSO solvent was added in an equal volume with concentration of 0.1%. Each sample was tested as 5 replicate wells. Then the supernatant was discarded, and DMSO was added in a volume of 150 μL, followed by shaking and mixing for 15 mins. The absorbance (A) value (A value is proportional to the number of living cells) is measured by a microplate reader at the wavelength of 570 nm, and the average value is taken. The relative cell proliferation inhibition rate (%)=(control group A570—experimental group A570)/control group A570×100%. The concentration of 50% inhibition rate (IC50) of the compound was calculated by the repetition of at least 3 times. The positive control was used as 5-flucrouracil.

[2] = system: MCF-7 tumor cells; assay: Cell proliferation inhibition assay (MTT), MCF-7; conditions: MCF-7 cells, 48 hours
Experimental: as §1, §2

[3] = system: Calu-6 tumor cells; assay: In vitro antitumor cell activity, Calu-6; conditions: Calu-6 cells
Experimental: as §1, §2

[4] = system: A549 tumor cells; assay: Cell proliferation inhibition assay (MTT), A549; conditions: 48 hours
Experimental: as §1, §2

Structure (SMILES) | IC50 [1] [µM] | IC50 [2] [µM] | IC50 [3] [µM] | IC50 [4] [µM]
O=C(Nc1ccc2cc(C(=O)Nc3nccs3)ccc2c1)c1cccc(C(F)(F)F)c1 [ABC-34] | 5.2 | 1.6 |  | 
Cc1cccc(C(=O)Nc2ccc3cc(C(=O)Nc4nccs4)ccc3c2)c1 [ABC-32] | 5.5 | 2.9 | 28.1 | 14.2
O=C(Nc1ccc2cc(C(=O)NC3CC3)ccc2c1)c1cccc(C(F)(F)F)c1 [ABC-28] | 5 |  |  | 
COc1ccccc1C(=O)Nc1ccc2cc(C(=O)NC(C)C)ccc2c1 [ABC-38] | 5 | 9 |  | 
Cc1cccc(C(=O)Nc2ccc3cc(C(=O)N4CCN(C)CC4)ccc3c2)c1 [ABC-05] | 10 |  |  | 
COc1ccc(C(=O)Nc2ccc3cc(C(=O)Nc4nccs4)ccc3c2)cc1 [ABC-31] |  | 3.9 |  | 
CC(C)NC(=O)c1ccc2cc(NC(=O)c3ccc(Cl)c(Cl)c3)ccc2c1 [ABC-48] | 3.9 |  |  | 12.6
O=C(Nc1ccc2cc(C(=O)N3CCOCC3)ccc2c1)c1ccc(F)cc1 [ABC-11] | 5.5 | 3.7 |  | 28.1
O=C(Nc1ccc2cc(C(=O)Nc3nccs3)ccc2c1)c1ccc(Cl)c(Cl)c1 [ABC-46] | 2 | 6.2 |  | 1.6
O=C(NCc1ccc(Cl)nc1)c1ccc2cc(NC(=O)c3ccc(F)cc3)ccc2c1 [ABC-07] | 5.8 | 7.6 |  | 
Cc1cccc(C(=O)Nc2ccc3cc(C(=O)NCc4ccc(Cl)nc4)ccc3c2)c1 [ABC-09] | 3.5 | 3.2 |  | 
COc1ccc(OC)c(C(=O)Nc2ccc3cc(C(=O)NCc4ccc(Cl)nc4)ccc3c2)c1 [ABC-15] | 6.6 | 3.5 |  | 
O=C(Nc1ccc2cc(C(=O)Nc3cccc(C(F)(F)F)c3)ccc2c1)c1cccc(C(F)(F)F)c1 [ABC-26] | 3.5 |  |  | 
COc1ccc(C(=O)Nc2ccc3cc(C(=O)NC4CC4)ccc3c2)cc1 [ABC-27] | 38.8 | 2.65 |  | 
O=C(Nc1ccc2cc(C(=O)NC3CC3)ccc2c1)c1ccc(F)cc1 [ABC-21] |  |  | 48.5 | 48.5
O=C(Nc1ccc2cc(C(=O)NC3CC3)ccc2c1)c1ccc(Cl)c(Cl)c1 [ABC-44] |  |  | 5.5 | 
O=C(Nc1ccc2cc(C(=O)NC3CC3)ccc2c1)c1cccc(Cl)c1 [ABC-43] |  |  | 25.3 | 25.2
CC(C)NC(=O)c1ccc2cc(NC(=O)c3cccc(Cl)c3)ccc2c1 [ABC-47] | 2.5 |  |  | 12.4
O=C(Nc1ccc2cc(C(=O)NC3CCCCC3)ccc2c1)c1cccc(C(F)(F)F)c1 [ABC-24] | 5 |  |  | 
CN1CCN(C(=O)c2ccc3cc(NC(=O)c4cccc(C(F)(F)F)c4)ccc3c2)CC1 [ABC-20] | 24.9 | 2.7 |  | 
O=C(Nc1ccc2cc(C(=O)N3CCOCC3)ccc2c1)c1ccc(Cl)c(Cl)c1 [ABC-40] |  |  | 12.4 | 
CN1CCN(C(=O)c2ccc3cc(NC(=O)c4ccc(Cl)c(Cl)c4)ccc3c2)CC1 [ABC-42] | 20 |  | 7.1 | 3.7
COc1ccc(C(=O)Nc2ccc3cc(C(=O)NC(C)C)ccc3c2)cc1 [ABC-29] | 8 |  |  | 
O=C(Nc1ccc2cc(C(=O)Nc3nccs3)ccc2c1)c1cccc(Cl)c1 [ABC-45] | 10 | 6.7 | 12.6 | 4.3
O=C(Nc1ccc2cc(C(=O)Nc3nccs3)ccc2c1)c1ccc(F)cc1 [ABC-02] | 10 |  |  | 
O=C(NCc1ccc(Cl)nc1)c1ccc2cc(NC(=O)c3cccc(C(F)(F)F)c3)ccc2c1 [ABC-17] | 3.6 | 3.2 |  | 
COc1ccc(C(=O)Nc2ccc3cc(C(=O)Nc4cccc(C(F)(F)F)c4)ccc3c2)cc1 [ABC-33] | 3 | 6.6 |  | 
